Results from US5043322A, “Cyclic GRF analogs” (The Salk Institute for Biological Studies, priority 1988, dated 1991).
Where a SMILES comes first, the peptide text is derived from it. Bridges are numbered along the chain shown (N, C = ends). [ ]: non-standard residue; d: D form. NMeY = CN[C@@H](Cc1ccc(O)cc1)C(=O)O; Nle = CCCC[C@H](N)C(=O)O

Columns and labels:
[1] = tested on: urethane-anesthetized male rats; assay: in vivo GH secretion after intravenous injection, blood GH by radioimmunoassay; set-up: species or system rat; settings: compared with 25 μg hGRF(1-40)--OH
Experimental: In addition to the in vitro tests for secretion of growth hormone, in vivo experiments inject the synthetic peptides intravenously into urethane-anesthetized male rats and determine that they trigger GH secretion. Blood samples are taken immediately prior to, and 10, 45 and 90 minutes after injections, and GH levels in blood are measured by radioimmunoassay. […] Dosages between about 400 nanograms and about 50 micrograms of these cyclic peptides per Kg. of body weight are considered to be effective in causing GH secretion.

[2] = tested on: cells of rat pituitary glands; assay: in vitro GH release from cultured rat pituitary cells, side-by-side with standard hGRF(1-40)--OH; format: cell-based; settings: equimolar concentrations, incubation 3 to 4 hours, ir GH in culture medium by radioimmunoassay
Experimental: All of these synthetic peptides are considered to be biologically active and potentially useful for stimulating the release of GH by the pituitary.
To determine the relative effectiveness of certain representative synthetic peptides to promote the release of growth hormone, in vitro assays are carried out using synthetic hGRF(1-40)--OH as a standard in side-by-side comparison with equimolar concentrations of the representative analogs which have been synthesized. Cultures are used which include cells of rat pituitary glands removed some three to five days previously. Such cultures are considered optimal for the secretion of growth hormone and are used for the comparative testing, in the general manner described in Vale et al. Endocrinology, 91, 562-572 (1972) and as more particularly described in Vale et al. Endocrinology, 112, 553-1555 (1983). Incubation with the substance to be tested is carried out for 3 to 4 hours, and aliquots of the culture medium are removed and processed to measure their contents in immunoreactive GH(ir GH) by a well-characterized radioimmunoassay.

| SMILES | in vivo response (blood GH) at 10 minutes ([1]; dosage of 5 μg) | biological potency for the secretion of GH relative to hGRF(1-40)--OH [2] | in vivo response (blood GH) at 10 minutes ([1]; dosage of 1 μg) |
| --- | --- | --- | --- |
| CCCC[C@@H]1NC(=O)[C@H]([C@@H](C)CC)NC(=O)[C@@H](NC(=O)[C@H](Cc2c[nH]cn2)NC(=O)[C@H](CC(C)C)NC(=O)[C@H](CC(C)C)NC(=O)[C@H](CCCCN)NC(=O)[C@H](CCCNC(=N)N)NC(=O)[C@H](C)NC(=O)[C@H](Cc2ccc(O)cc2)NC(=O)[C@H](CC(C)C)NC(=O)[C@H](CCC(N)=O)NC(=O)[C@H](C)NC(=O)[C@H](CC(C)C)NC(=O)[C@@H](NC(=O)[C@H](CCCNC(=N)N)NC(=O)[C@H](CCCNC(=N)N)NC(=O)[C@H](Cc2ccc(O)cc2)NC(=O)[C@H](CO)NC(=O)[C@H](CO)NC(=O)[C@@H](NC(=O)[C@H](Cc2ccccc2)NC(=O)[C@@H](NC(=O)[C@H](C)NC(=O)[C@H](CC(=O)O)NC(=O)[C@H](C)NC(=O)[C@H](Cc2ccc(O)cc2)NC)[C@@H](C)CC)[C@@H](C)O)[C@@H](C)CC)CSSC[C@H](C(N)=O)NC(=O)[C@H](CC(N)=O)NC1=O [Example IA, [N^a MeTyr^1,Ala^15,Cys^25,Nle^27,D-Cys^29]-rGRF(1-29)-NH2] (H-[NMeY]ADAIFTSSYRRILAQLYARKLLHCI[Nle]N[dC]-NH2; disulfide 25-29) | greater than a 25 μg dose of hGRF(1-40)--OH | about twice |  |
| CCCC[C@@H]1NC(=O)[C@H]([C@@H](C)CC)NC(=O)[C@H](NC(=O)[C@H](Cc2c[nH]cn2)NC(=O)[C@H](CC(C)C)NC(=O)[C@H](CC(C)C)NC(=O)[C@H](CCCCN)NC(=O)[C@H](CCCNC(=N)N)NC(=O)[C@H](C)NC(=O)[C@H](Cc2ccc(O)cc2)NC(=O)[C@H](CC(C)C)NC(=O)[C@H](CCC(N)=O)NC(=O)[C@H](C)NC(=O)[C@H](CC(C)C)NC(=O)[C@@H](NC(=O)[C@H](CCCNC(=N)N)NC(=O)[C@H](CCCNC(=N)N)NC(=O)[C@H](Cc2ccc(O)cc2)NC(=O)[C@H](CO)NC(=O)[C@H](CO)NC(=O)[C@@H](NC(=O)[C@H](Cc2ccccc2)NC(=O)[C@@H](NC(=O)[C@H](C)NC(=O)[C@H](CC(=O)O)NC(=O)[C@H](C)NC(=O)[C@H](Cc2ccc(O)cc2)NC)[C@@H](C)CC)[C@@H](C)O)[C@@H](C)CC)CSSC[C@@H](C(N)=O)NC(=O)[C@H](CC(N)=O)NC1=O [Example I, [N^a MeTyr^1, Ala^15, D-Cys^25, Nle^27,Cys^29]-rGRF(1-29)-NH2] (H-[NMeY]ADAIFTSSYRRILAQLYARKLLH[dC]I[Nle]NC-NH2; disulfide 25-29) |  |  | greater than a 25 μg dose of hGRF(1-40)--OH |
